According to patent publication US11242327B2, “Analgesic compounds” (RECURIUM IP HOLDINGS, LLC, priority 2017, dated 2022):

Columns and labels:
[1] = tested on: male Sprague-Dawley rats; experiment: UVB Inflammatory Pain Test (thermal hyperalgesia); type: in vivo; conditions: rat, oral; for paw withdrawal latency, 1 h: 1 h after dosing; for paw withdrawal latency, 2 h: 2 h after dosing; for paw withdrawal latency, 4 h: 4 h after dosing
In short: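 Left hind-paw plantar UVB (350 mJoules/cm^2) given on Day −3 to male Sprague-Dawley rats; on Day 0, test compounds dosed orally at 3, 10, 30 or 100 mg/kg, with water vehicle, celecoxib 30 mg/kg and acetaminophen 300 mg/kg. Radiant-heat paw withdrawal latency (mean of 3, 30 s cutoff) measured before dosing and about 1, 2 and 4 h after.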

[2] = tested on: male Sprague-Dawley rats; experiment: Osteoarthritis Pain Test (MIA, mechanical hyperalgesia); type: in vivo; conditions: rat; for joint compression threshold, Day 3, 1 h: Day 3, 1 h post-dosing; for joint compression threshold, Day 3, 2 h: Day 3, 2 h post-dosing; for joint compression threshold, Day 3, 4 h: Day 3, 4 h post-dosing; for joint compression threshold, Day 6, 1 h: Day 6, 1 h post-dosing; for joint compression threshold, Day 6, 2 h: Day 6, 2 h post-dosing; for joint compression threshold, Day 6, 4 h: Day 6, 4 h post-dosing; for joint compression threshold, Day 0, 1 h: Day 0, 1 h post-dosing; for joint compression threshold, Day 0, 2 h: Day 0, 2 h post-dosing; for joint compression threshold, Day 0, 4 h: Day 0, 4 h post-dosing
Method: Osteoarthritis pain was induced in non-fasted male Sprague-Dawley rats weighing 150-250 g by injecting 2 mg of monosodium iodoacetate (MIA) into the left knee joint. Mechanical hyperalgesia was measured using a digital Randall-Selitto device (dRS; IITC Life Sciences©; Woodland Hills, Calif.). Animals were allowed to acclimate to the testing room for a minimum of 15 minutes before testing. Animals were placed in a restraint sling that suspended the animal, leaving the hind limbs available for testing. The stimulus was applied to the knee joint by a blunt tip and pressure was applied gradually over approximately 10 seconds. Joint compression threshold values were recorded at the first observed nocifensive behavior (vocalization, struggle, or withdrawal). One reading per joint was taken at each time point, and a maximum stimulus cutoff of 500 grams was used to prevent injury to the animal. Mechanical hyperalgesia was assessed prior to MIA injection, and again 14 days later. After 14 days, test or control articles were administered once daily for 7 days with mechanical hyperalgesia assessed prior to dosing, 1, 2, and 4 hours post-dosing on days 0, 3, and 6. Test compounds were administered orally at concentrations of 3, 10, 30 or 100 mg/kg and celecoxib was administered orally at a concentration of 30 mg/kg. The control group received the vehicle (sterile water). After day 0, groups receiving the 100 mg/kg dose were reduced to a dose of 3 mg/kg. In Table 5, ‘A’ designates ≥375 grams of joint compression, ‘B’ designates ≥325 and <375 grams of joint compression, and ‘C’ designates <325 grams of joint compression.
The results provided in Table 5 are for oral administration in rats.

[3] = biological target: Opiate δ2 (Homo sapiens, UniProt P41143); experiment: NSAIDS and Opioid Receptor Test: Opiate δ2; type: binding; conditions: 10 μM
Opiate δ2, sequence (P41143 whole entry): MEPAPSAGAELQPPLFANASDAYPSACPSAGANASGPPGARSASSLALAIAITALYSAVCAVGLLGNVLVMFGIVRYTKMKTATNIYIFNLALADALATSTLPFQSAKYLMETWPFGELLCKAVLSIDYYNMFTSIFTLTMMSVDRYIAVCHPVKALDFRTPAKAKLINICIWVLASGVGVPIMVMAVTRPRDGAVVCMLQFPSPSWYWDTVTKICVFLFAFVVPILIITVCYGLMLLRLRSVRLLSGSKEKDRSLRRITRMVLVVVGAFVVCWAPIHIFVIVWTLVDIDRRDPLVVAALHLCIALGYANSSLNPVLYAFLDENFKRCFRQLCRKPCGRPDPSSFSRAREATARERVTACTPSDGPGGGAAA
Method: Compounds were screened as DMSO solutions at 10 μM, 100 μM, or 200 μM and values represent percent inhibition of control-specific binding. […] As NSAID and opioid mechanisms of action are precluded, a person of ordinary skill in the art understands that undesirable side effects associated with inhibition of COX receptors in NSAIDs and activation of opiate receptors in opioids can be avoided by compounds described herein. Furthermore, opioids are known to lose their analgesic potency after to continued administration. (See Benyamin, et al. “Opioid Complications and Side Effects” Pain Physician 11 (2008): S105-S120). As the data indicates compounds described herein have a different mechanism action compared to opioids, a person of ordinary skill in the art would appreciate that compounds described herein would not be expected to lose their analgesic potency like opioids after continued admininistration.

[4] = Bioavailability Test (rat pharmacokinetics); type: in vivo
[5] = oral once daily, 3 mg/kg (group had 100 mg/kg on day 0)
[6] = male, Sprague-Dawley, in vivo, IV 3 mg/kg, 0.9% saline
[7] = male, Sprague-Dawley, in vivo, PO 30 mg/kg, sterile water

Cl.NC12CC(c3nc(C(F)(F)F)cs3)(C1)C2 [Compound 1, 3-(4-(Trifluoromethyl)thiazol-2-yl)bicyclo[1.1.1]pentan-1-amine hydrochloride]
paw withdrawal latency, 1 h ([1]; 3 mg/kg): B (>6 and <8 seconds of paw withdrawal latency) | paw withdrawal latency, 2 h ([1]; 3 mg/kg): B (>6 and <8 seconds of paw withdrawal latency) | paw withdrawal latency, 4 h ([1]; 3 mg/kg): B (>6 and <8 seconds of paw withdrawal latency) | paw withdrawal latency, 1 h ([1]; 10 mg/kg): B (>6 and <8 seconds of paw withdrawal latency) | paw withdrawal latency, 2 h ([1]; 10 mg/kg): B (>6 and <8 seconds of paw withdrawal latency) | paw withdrawal latency, 4 h ([1]; 10 mg/kg): B (>6 and <8 seconds of paw withdrawal latency) | paw withdrawal latency, 1 h ([1]; 30 mg/kg): A (>8 seconds of paw withdrawal latency) | paw withdrawal latency, 2 h ([1]; 30 mg/kg): A (>8 seconds of paw withdrawal latency) | paw withdrawal latency, 4 h ([1]; 30 mg/kg): A (>8 seconds of paw withdrawal latency) | paw withdrawal latency, 1 h ([1]; 100 mg/kg): A (>8 seconds of paw withdrawal latency) | paw withdrawal latency, 2 h ([1]; 100 mg/kg): A (>8 seconds of paw withdrawal latency) | paw withdrawal latency, 4 h ([1]; 100 mg/kg): A (>8 seconds of paw withdrawal latency) | joint compression threshold, Day 3, 1 h [2, 5]: A (≥375 grams of joint compression) | joint compression threshold, Day 3, 2 h [2, 5]: A (≥375 grams of joint compression) | joint compression threshold, Day 3, 4 h [2, 5]: A (≥375 grams of joint compression) | joint compression threshold, Day 6, 1 h [2, 5]: A (≥375 grams of joint compression) | joint compression threshold, Day 6, 2 h [2, 5]: B (≥325 and <375 grams of joint compression) | joint compression threshold, Day 6, 4 h [2, 5]: A (≥375 grams of joint compression) | joint compression threshold, Day 0, 1 h ([2]; oral once daily, 10 mg/kg): B (≥325 and <375 grams of joint compression) | joint compression threshold, Day 0, 2 h ([2]; oral once daily, 10 mg/kg): C (<325 grams of joint compression) | joint compression threshold, Day 0, 4 h ([2]; oral once daily, 10 mg/kg): C (<325 grams of joint compression) | joint compression threshold, Day 3, 1 h ([2]; oral once daily, 10 mg/kg): B (≥325 and <375 grams of joint compression) | joint compression threshold, Day 3, 2 h ([2]; oral once daily, 10 mg/kg): B (≥325 and <375 grams of joint compression) | joint compression threshold, Day 3, 4 h ([2]; oral once daily, 10 mg/kg): B (≥325 and <375 grams of joint compression) | joint compression threshold, Day 6, 1 h ([2]; oral once daily, 10 mg/kg): B (≥325 and <375 grams of joint compression) | joint compression threshold, Day 6, 2 h ([2]; oral once daily, 10 mg/kg): B (≥325 and <375 grams of joint compression) | joint compression threshold, Day 6, 4 h ([2]; oral once daily, 10 mg/kg): B (≥325 and <375 grams of joint compression) | joint compression threshold, Day 0, 1 h ([2]; oral once daily, 30 mg/kg): B (≥325 and <375 grams of joint compression) | joint compression threshold, Day 0, 2 h ([2]; oral once daily, 30 mg/kg): B (≥325 and <375 grams of joint compression) | joint compression threshold, Day 0, 4 h ([2]; oral once daily, 30 mg/kg): B (≥325 and <375 grams of joint compression) | joint compression threshold, Day 3, 1 h ([2]; oral once daily, 30 mg/kg): A (≥375 grams of joint compression) | joint compression threshold, Day 3, 2 h ([2]; oral once daily, 30 mg/kg): A (≥375 grams of joint compression) | joint compression threshold, Day 3, 4 h ([2]; oral once daily, 30 mg/kg): B (≥325 and <375 grams of joint compression) | joint compression threshold, Day 6, 1 h ([2]; oral once daily, 30 mg/kg): A (≥375 grams of joint compression) | joint compression threshold, Day 6, 2 h ([2]; oral once daily, 30 mg/kg): B (≥325 and <375 grams of joint compression) | joint compression threshold, Day 6, 4 h ([2]; oral once daily, 30 mg/kg): B (≥325 and <375 grams of joint compression) | joint compression threshold, Day 0, 1 h ([2]; oral, 100 mg/kg): A (≥375 grams of joint compression) | joint compression threshold, Day 0, 2 h ([2]; oral, 100 mg/kg): A (≥375 grams of joint compression) | joint compression threshold, Day 0, 4 h ([2]; oral, 100 mg/kg): A (≥375 grams of joint compression) | inhibition at 10 µM [3]: 7% | F ([4]; PO 30 mg/kg vs IV 3 mg/kg): 115% | AUC(0-inf) [4, 6]: 19.2 µM·h | clearance [4, 6]: 11 mL/min/kg | half-life [4, 6]: 3.1 h | Vd ([4]; male, Sprague-Dawley, in vivo, IV 3 mg/kg, 0.9% saline, read-out: Vdss): 1.4 L/kg | AUC(0-inf) [4, 7]: 277 µM·h | Cmax [4, 7]: 49 µM | Tmax [4, 7]: 0.3 h | half-life [4, 7]: 5.6 h
